≈ marks a conversion by molar mass, not a printed value. Like-named read-outs stand apart in the source and are kept apart here.
Assays:
Bacillus subtilis (Bs) = assay: MIC for Bacillus subtilis, nutrient agar; format: cell-based, Bacillus subtilis ATCC 8473; conditions: 30° C., 48 hours, read-out: Minimum Inhibitory Concentration (MIC), Bs
Method in brief: (§1)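 Overnight nutrient-broth cultures (24 h, 30° C, shaken) diluted to 10^8 CFU/mL and spotted with a Steer's Replicator onto compound-containing nutrient agar plates, neutral and alkaline pH. Incubation 48 h at 30° C; MIC read as the lowest level preventing visible growth.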

Escherichia coli (Ec) = assay: MIC for Escherichia coli, nutrient agar; format: cell-based, Escherichia coli ATCC 11229; conditions: 30° C., 48 hours, read-out: Minimum Inhibitory Concentration (MIC), Ec
Method in brief: as §1

[1] = tested on: Staphylococcus aureus (Sa); assay: MIC for Staphylococcus aureus, nutrient agar; format: cell-based, Staphylococcus aureus ATCC 6538; conditions: 30° C., 48 hours, read-out: Minimum Inhibitory Concentration (MIC), Sa
Method in brief: as §1

[2] = tested on: Penicillium chrysogenum (Pc); assay: MIC for Penicillium chrysogenum, malt yeast agar; format: cell-based, Penicillium chrysogenum ATCC 9480; conditions: malt yeast agar; 30° C., 72 hours for fungi; read-out: Minimum Inhibitory Concentration (MIC), PC
Method in brief: (§2)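 Agar dilution on malt yeast agar with compound (from 1% acetone/water solution) at final 0, 1.0, 2.5, 5, 10, 25, 50, 100, 250, 500 ppm. Plates inoculated by replicator with saline suspensions (1:9 diluted) of 7-day cultures; incubated at 30 °C, read at 48 h for yeast and 72 h for fungi.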

Fusarium oxysporum (Fo) = assay: MIC for Fusarium oxysporum, malt yeast agar; format: cell-based, Fusarium oxysporum ATCC 48112; conditions: malt yeast agar; 30° C., 72 hours for fungi; read-out: Minimum Inhibitory Concentration (MIC), Fo
Method in brief: as §2

marine organism growth = assay: Marine antifouling rating of coated test panels exposed to marine environment; set-up: species or system marine organisms; conditions: scale 10 (completely free of growth) to 0 (completely covered); for Marine Antifouling Rating, 10 Week Test, Bottom Panel / Marine Antifouling Rating, 10 Week Test, Top Panel: 10 weeks; for Marine Antifouling Rating, 10 Week Test, Top Panel: untreated Control 7
Description: Test panels are prepared from clear, rigid polyvinyl chloride film that is 0.381×10^-3 m thick and has one textured surface. The test panels are 0.1524 m by 0.1524 m squares that have 0.00635 m holes punched at corners on 0.127 m centers. A 0.102 square template, with a 0.067 m diameter hole at the center, is attached to the center of the textured surface of the test panels.
A candidate marine antifoulant compound (1.0 g) is stirred into a resinous latex binder (9.0 g). A portion of the compound/binder mixture (1.5 g) is added to the center of the test panel and uniformly spread over the circular area inside the template.
Water is added dropwise as needed to properly spread the compound/binder mixture. The template prevents the compound/binder mixture from spreading beyond the uncovered area. The test panel is allowed to sit for between ten to thirty minutes until the edge of the spread compound/binder mixture has dried. The template is then removed. The test panel is then allowed to dry for 8 to 12 hours at room temperature.
Two test panels are prepared for each candidate marine antifoulant compound. Two control test panels are also prepared by only treating with the resinous latex binder. One test panel of each candidate marine […] compound is attached over a white background to the topside of an exposure support apparatus. The second test panel is attached over a black background to the underside of the exposure support apparatus. The exposure support apparatus is placed horizontally 0.0254 m under a marine surface with the white background topside facing up. The exposure support apparatus is exposed to the marine environment for both 10 and 20 weeks during which time the control test panels become substantially covered with mature marine organism growth on both the topside and underside exposures.
After being removed from the exposure support apparatus, each test panel is inspected and rated for marine organism growth on both the treated and untreated areas of the test panel. The marine organisms present on the treated and untreated areas are noted. The presence of algae spores and bacterial slime are noted but not included in rating each test panel. The test panels are rated on a scale from 10 (representing completely free of marine organism growth) to 0 (representing completely covered with marine organism growth).
In Table V, the marine antifouling rating values for some of the compounds listed in Table I are set forth, as well as the ratings for control panels (using no marine antifouling compound, and referred to in Table V as "Control") and panels using a standard commercial marine antifouling compound (with copper (I) oxide (Cu2 O) as the active agent and referred to in Table V as "STANDARD II").

[3] = bottom panel (black background), untreated Control 1

Structure (SMILES) | MIC (Bacillus subtilis (Bs); pH 6.8, nutrient agar) [µg/mL] | MIC (Bacillus subtilis (Bs); pH 8.2, nutrient agar) [µg/mL] | MIC (Escherichia coli (Ec); pH 6.8, nutrient agar) [µg/mL] | MIC (Escherichia coli (Ec); pH 8.2, nutrient agar) [µg/mL] | MIC ([1]; pH 6.8, nutrient agar) [µg/mL] | MIC ([1]; pH 8.2, nutrient agar) [µg/mL] | MIC [2] [µg/mL] | MIC (Fusarium oxysporum (Fo)) [µg/mL] | Marine Antifouling Rating, 10 Week Test, Bottom Panel (marine organism growth; [3]) | Marine Antifouling Rating, 10 Week Test, Top Panel (marine organism growth; top panel (white background)) | Marine Antifouling Rating, 20 Week Test, Bottom Panel (marine organism growth; 20 weeks, bottom panel (black background), untreated Control 1) | Marine Antifouling Rating, 20 Week Test, Top Panel (marine organism growth; 20 weeks, top panel (white background), untreated Control 1)
Cc1ccc(-n2ncc3c(c2=O)SC(C#N)=C(C#N)S3)cc1 [B, 5,6-dihydro-6-(4-methylphenyl)-5-oxo-1,4-dithiino-(2,3-d)-pyridazine-2,3-dicarbonitrile] | < 10 | 25 (≈ 77.1 µM) | 50 (≈ 154 µM) | > 500 | < 10 | 25 (≈ 77.1 µM) | 25 (≈ 77.1 µM) | 25 (≈ 77.1 µM) | 4 | 10 | 1 | 1
N#CC1=C(C#N)Sc2c(cnn(-c3ccc(Br)cc3)c2=O)S1 [C, 5,6-dihydro-6-(4-bromophenyl)-5-oxo-1,4-dithiino-(2,3-d)-pyridazine-2,3-dicarbonitrile] | < 10 | 100 (≈ 257 µM) | 100 (≈ 257 µM) | > 500 | > 500 | > 500 | 25 (≈ 64.2 µM) | 10 (≈ 25.7 µM) | 1 | 7 | – | –
